Values quoted from earlier work in US8921533B2, “Glycosylated valproic acid analogs and uses thereof” (Chromatin Technologies, priority 2011, dated 2014).
Where two headings read alike, the source gives them in different places.

Test system: sensitised guinea pig tracheal rings
Conditions: also contraction induced by histamine, 5-hydroxytryptamine and carbachol

## CCCC(=O)[O-].[Na+] [sodium butyrate]
1 mM
  inhibition of antigen-induced contraction of tracheal rings: weak inhibitors

## CCCC(CCC)C(=O)[O-].[Na+] [sodium valproate]
100 microM
  inhibition of antigen-induced contraction of tracheal rings: weak inhibitors
